# Results published in US8029980B2, “Identification and use of agents that modulate oncogenic transcription agent activity” (The Board of Trustees of the University of Illinois, priority 2006, dated 2011).
# Tests used:
# [1] = test system: human breast cancer MDA-MB-231 cell line; settings: earlier report (ref. 26); cited from earlier work
# [2] = test system: Breast cancer cell lines BT-474, MDA-MB-231, T-47D and ZR-75-1; assay: FoxM1 and cleaved caspase-3 immunoblot in breast cancer cell lines; type: cell-based, human; settings: 5 μM, 48 hrs
# Method: FIG. 7. […] Breast cancer cell lines BT-474, MDA-MB-231, T-47D and ZR-75-1 were treated with 5 μM Siomycin and thiostrepton, respectively, for 48 hrs and the cell lysates were analyzed for the levels of FoxM1 and cleaved caspase-3 by immunoblotting.
# (§1) Immunoblotting was performed as described (18-20) with antibodies specific for p21 (556431; BD Pharmingen), survivin (sc-10811; Santa Cruz), cleaved caspase-3 (9664; Cell Signaling), and β-actin (A5441; Sigma) antibodies. Immunoblot for FoxM1 was done using the previously generated rabbit antisera (2), and phospho-FoxM1 was detected using the MPM2 monoclonal antibody (Upstate Biotechnology) which recognizes the phosphorylated protein sequence phosphoserine/phosphothreonine-proline.
# [3] = test system: NB7 and NB7-casp8 neuroblastoma cells; assay: FoxM1 and cleaved caspase-3 immunoblot in neuroblastoma cells; type: cell-based; settings: 24 hrs
# Method: FIG. 11. […] Cells were treated with Siomycin A, thiostrepton or DMSO, harvested 24 hrs later and the lysates were used to determine proteins levels by immunoblotting with antibodies specific for FoxM1, cleaved caspase-3 and β-actin (AS441, Sigma).
# [4] = test system: Liver cancer cell lines Huh7, Hep-3B and SK-Hep; assay: FoxM1 and cleaved caspase-3 immunoblot in liver cancer cell lines; type: cell-based, human; settings: 10 μM, 48 hrs
# Method: FIG. 9. […] Liver cancer cell lines Huh7, Hep-3B and SK-Hep were treated with 10 μM Siomycin A and thiostrepton, respectively, for 48 hrs, and the cell lysates were analyzed for the levels of FoxM1 and cleaved caspase-3 by immunoblotting.
# as §1
# First, we treated liver cancer cell lines Huh7, Hep-3B and SK-Hep that have deleted or mutant p53 with these compounds for 48 hrs, and the cell lysates were analyzed for the levels of FoxM1 and cleaved caspase-3 by immunoblotting.
# 293 and Hela cells = assay: Sensitization to TNF-alpha-induced apoptosis (cleaved caspase-3 immunoblot); type: cell-based, human; settings: 1 μM Siomycin A and 10 ng/ml TNF-alpha, 24 hours
# Method: FIG. 14. […] 293 (A) and Hela (B) cells were pretreated with the indicated concentrations of Sulfazalazine (control) for overnight. The following day the cells were treated with 1 μM Siomycin A and 10 ng/ml TNF-alpha as indicated. Twenty-four hours later the cells were harvested and the total cell lysates were used to determine the level of cleaved caspase-3. β-actin was used as the loading control.
# FoxM1 = target: T1, FoxM1 (Homo sapiens, UniProt Q08050); assay: FoxM1 immunoprecipitation and MPM2 immunoblot for phospho-FoxM1 in C3-Luc cells; type: cell-based; settings: 100 μM, 8 hrs
# T1 construct: endogenous in cells; host or cells: C3-Luc (U2OS)
# T1 sequence (Q08050 1-763): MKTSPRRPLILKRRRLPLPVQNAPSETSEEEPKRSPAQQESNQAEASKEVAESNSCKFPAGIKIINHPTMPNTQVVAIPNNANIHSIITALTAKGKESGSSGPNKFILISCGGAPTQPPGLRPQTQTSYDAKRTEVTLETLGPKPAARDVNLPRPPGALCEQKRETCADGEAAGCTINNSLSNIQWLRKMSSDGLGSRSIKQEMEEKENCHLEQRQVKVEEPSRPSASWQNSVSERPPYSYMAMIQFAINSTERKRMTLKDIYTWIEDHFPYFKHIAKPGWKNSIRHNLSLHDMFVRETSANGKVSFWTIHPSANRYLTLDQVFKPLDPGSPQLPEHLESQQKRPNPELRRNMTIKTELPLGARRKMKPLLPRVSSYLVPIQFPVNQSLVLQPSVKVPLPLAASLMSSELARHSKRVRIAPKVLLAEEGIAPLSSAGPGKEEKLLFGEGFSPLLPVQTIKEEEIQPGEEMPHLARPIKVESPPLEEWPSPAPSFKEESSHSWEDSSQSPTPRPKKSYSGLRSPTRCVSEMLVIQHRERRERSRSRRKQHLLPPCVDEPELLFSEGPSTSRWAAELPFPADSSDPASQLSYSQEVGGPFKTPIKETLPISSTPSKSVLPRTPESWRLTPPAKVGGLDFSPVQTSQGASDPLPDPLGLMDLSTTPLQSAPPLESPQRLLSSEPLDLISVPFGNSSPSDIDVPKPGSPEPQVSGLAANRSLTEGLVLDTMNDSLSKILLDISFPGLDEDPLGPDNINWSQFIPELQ
# Method: as §1
# For the immunoprecipitation experiment, FoxM1 antisera (2) was used along with protein A-sepharose to pull down FoxM1 protein, which was resolved on an SDS-PAGE gel and transferred to PVDF membrane. The total and phospho-FoxM1 levels were determined by using the antibodies described above.
# Based on this observation, we hypothesized that Siomycin A may inhibit FoxM1 transcriptional activity by blocking this phosphorylation event. In order to test this hypothesis, we treated C3-Luc cells with DMSO (control) or 100 μM of Siomycin A for 8 hrs and immunoprecipitated FoxM1 from the lysates. We then analyzed these samples for phospho-FoxM1 levels by immunoblotting with MPM2, a monoclonal antibody that recognizes phosphorylated Cdk1 and Cdk2 sites.
# [5] = test system: Leukemia cell lines CEM, HL60 and U937; assay: FoxM1 and cleaved caspase-3 immunoblot in leukemia cell lines; type: cell-based, human; settings: 5 μM, 48 hrs
# Method: FIG. 10. […] Leukemia cell lines CEM, HL60 and U937 were treated with 5 μM Siomycin A and thiostrepton, respectively, for 48 hrs and the cell lysates were analyzed for the levels of FoxM1 and cleaved caspase-3 by immunoblotting.
# as §1
# Next we treated leukemia cell lines with mutant p53 CEM, HL60 and U937 with 5 μM of these compounds for 48 hrs and the cell lysates were analyzed for the levels of FoxM1 and cleaved caspase-3 by immunoblotting.
smiles,measurement,setting,value
C=C(NC(=O)C(=C)NC(=O)c1csc(C2=N[C@@H]3c4csc(n4)[C@H]4NC(=O)c5csc(n5)[C@H]([C@](C)(O)[C@@H](C)O)NC(=O)[C@H]5CSC(=N5)/C(=C/C)NC(=O)[C@H]([C@@H](C)O)NC(=O)c5csc(n5)[C@]3(CC2)NC(=O)[C@H](C)NC(=O)C(=C)NC(=O)C(=C)NC(=O)[C@H](C(C)C)N[C@@H]2C=Cc3c([C@H](C)O)cc(nc3[C@H]2O)C(=O)O[C@@H]4C)n1)C(N)=O [Siomycin A],pro-apoptotic activity in screen,[1],identified in a screen for pro-apoptotic compounds
same,FoxM1 expression,[2],inhibit FoxM1 expression
same,apoptosis (cleaved caspase-3),[2],induce apoptosis
same,apoptosis (cleaved caspase-3),[3]; NB7 and NB7 with reconstituted caspase-8,induce apoptosis in these neuroblastoma cells independently from caspase-8
same,FoxM1 protein expression,[3]; immunoblot,inhibit FoxM1 protein expression
same,FoxM1 protein expression,[4],repress FoxM1 protein expression
same,apoptosis (cleaved caspase-3),[4],induce apoptosis
same,sensitization to TNF-alpha-induced apoptosis,293 and Hela cells,sensitize human cancer cells to TNF-alpha-induced apoptosis
same,phospho-FoxM1 levels,FoxM1,decrease in phospho-FoxM1
same,total FoxM1 levels,FoxM1,only marginally reduced
same,FoxM1 expression,[5],inhibit FoxM1 expression
same,apoptosis (cleaved caspase-3),[5],induce apoptosis
